{"source": "paper PMC6891678", "about": "“A Novel Prodrug Approach for Central Nervous System-Selective Estrogen Therapy” (Molecules, 2019)", "origin": "cited, not measured here", "key": {"liver homogenate": {"tested_on": "liver homogenate", "details": "100 μM, 37 °C, homogenate 0.2% w/v, pH 7.4; mean ± SD"}, "brain homogenate": {"tested_on": "brain homogenate", "details": "100 μM, 37 °C, homogenate 0.2% w/v, pH 7.4; mean ± SD"}, "retina homogenate": {"tested_on": "retina homogenate", "details": "100 μM, 37 °C, homogenate 0.2% w/v, pH 7.4; mean ± SD"}, "[1]": {"tested_on": "ER transcription (ERE-Luc reporter)"}, "[2]": {"tested_on": "MCP-1−/− transgenic mouse model", "set-up": "method as in earlier work", "details": "topical eye drops; for increase of contrast sensitivity compared to the vehicle control: ipsilateral/treated eye"}, "[3]": {"tested_on": "middle-aged OVX Fisher-344 rats", "details": "continuous 7-week s.c. administration, 4 µg daily dose"}, "amyloid-β peptide (Aβ)": {"tested_on": "amyloid-β peptide (Aβ)", "details": "OVX and intact female APPswe/PS1dE9 DTG mice"}, "[4]": {"tested_on": "transient middle cerebral artery occlusion (tMCAO) ischemic stroke model", "details": "for ED50 (dose equivalent to 50% of the maximum effect): neuroprotection, tMCAO followed by reperfusion"}, "[5]": {"assay": "not given", "remark": "listed apart in the source"}, "[6]": {"details": "E2-CDS-treated animals"}, "uterus [7]": {"tested_on": "uterus", "details": "after E2-CDS"}, "[8]": {"details": "300 µg/kg s.c., 5 days once daily, SEM, n = 4"}, "uterus [9]": {"tested_on": "uterus", "details": "increasing s.c. doses, 5 days once daily"}, "OVX CD1 mice": {"tested_on": "OVX CD1 mice", "details": "increasing s.c. doses, 5 days once daily"}}}
{"compound": "C[C@]12CC[C@@H]3C4=C(CC[C@H]3[C@@H]1CCC2=O)C(=O)C(=O)C=C4", "note": "[3,4-E1-quinone, estra-1,5(10)-dien-3,4,17-trione, reference compound]", "values": [{"measurement": "Rate of H2O2 production, Liver", "setting": "liver homogenate", "result": "687 ± 40", "unit": "nmol·h^−1·mg protein^−1"}, {"measurement": "Rate of H2O2 production, Brain", "setting": "brain homogenate", "result": "1050 ± 8", "unit": "nmol·h^−1·mg protein^−1"}, {"measurement": "Rate of H2O2 production, Retina", "setting": "retina homogenate", "result": "580 ± 50", "unit": "nmol·h^−1·mg protein^−1"}]}
{"compound": "C[C@]12CC[C@H]3[C@@H](CCC4=CC(=O)C=C[C@@]43O)[C@@H]1CC[C@@H]2O", "note": "[DHED, 10β,17β-dihydroxyestra-1,4-dien-3-one]", "values": [{"measurement": "ER activation within the brain (bioluminescence in brain slices)", "setting": "[1]; i.c.v. injection, 75 µg/kg", "result": "profound ER activation"}, {"measurement": "bioluminescence in the periphery (ERE-Luc reporter activation)", "setting": "[1]; s.c., E2 20 μg/kg, DHED 200 μg/kg", "result": "did not generate bioluminescence in the periphery"}, {"measurement": "Rate of H2O2 production, Liver", "setting": "liver homogenate", "result": "34 ± 18", "unit": "nmol·h^−1·mg protein^−1"}, {"measurement": "increase of contrast sensitivity compared to the vehicle control", "setting": "[2]", "result": "approximately 3 fold"}, {"measurement": "preservation of contrast sensitivity compared to the wild-type (WT) control", "setting": "[2]", "result": "approximately 75%"}, {"measurement": "Rate of H2O2 production, Brain", "setting": "brain homogenate", "result": "125 ± 19", "unit": "nmol·h^−1·mg protein^−1"}, {"measurement": "oral bioavailability", "result": "excellent oral bioavailability"}, {"measurement": "working memory errors compared to control animals", "setting": "[3]", "result": "significantly decreased working memory errors"}, {"measurement": "amyloid-β peptide (Aβ) levels in the brain", "setting": "amyloid-β peptide (Aβ)", "result": "decreased amyloid-β peptide (Aβ) levels in the brain"}, {"measurement": "Rate of H2O2 production, Retina", "setting": "retina homogenate", "result": "163 ± 9", "unit": "nmol·h^−1·mg protein^−1"}, {"measurement": "ED50 (dose equivalent to 50% of the maximum effect)", "setting": "[4]", "result": 15, "unit": "µg/kg"}]}
{"compound": "C[C@]12CC[C@@H]3c4ccc(O)cc4CC[C@H]3[C@@H]1CC[C@@H]2O", "note": "[E2, 17β-estradiol, reference compound]", "values": [{"measurement": "time of maximum bioluminescence effect after drug treatment", "setting": "[1]; E2 20 μg/kg s.c.", "result": "about 3 h"}, {"measurement": "increase of contrast sensitivity compared to the vehicle control", "setting": "[2]", "result": "~2", "unit": "fold"}, {"measurement": "preservation of contrast sensitivity compared to the wild-type (WT) control", "setting": "[2]", "result": "~50", "unit": "%"}, {"measurement": "oral bioavailability", "result": "lacks appreciable oral bioavailability"}, {"measurement": "ED50 (dose equivalent to 50% of the maximum effect)", "setting": "[4]", "result": "~ 200 µg/kg"}, {"measurement": "E2 concentration in the retina", "setting": "[5]; 3-week daily E2 eye drops", "result": "~ 22 ng/g"}, {"measurement": "circulating estrogen levels", "setting": "[5]; chronic E2 eye drop treatment", "result": "> 400", "unit": "pg/mL"}]}
{"compound": "CN1C=CCC(C(=O)O[C@H]2CC[C@H]3[C@@H]4CCc5cc(O)ccc5[C@H]4CC[C@]23C)=C1", "note": "[E2-CDS]", "values": [{"measurement": "E2 content of uterus", "setting": "[6]", "result": "1 to 3", "unit": "ng/g"}, {"measurement": "wet uterine weight relative to control (uterotrophic effect)", "setting": "uterus [7]", "result": "significant increase in wet uterine weight"}]}
{"compound": "C[C@]12CC[C@H]3[C@@H](CCC4=CC(=O)C=C[C@@]43O)[C@@H]1CCC2=O", "note": "[HEDD, 10β-hydroxyestra-1,4-dien-3,17-dione]", "values": [{"measurement": "neuroprotection in stroke model", "setting": "[4]; without peripheral hormonal liability", "result": "significant neuroprotection"}]}
{"compound": "C[C@]12CC[C@H]3[C@@H](CCC4=CC(=O)C=C[C@@]43O)[C@@H]1CC[C@H]2O", "note": "[αDHED, 10β,17α-dihydroxyestra-1,4-dien-3-one]", "values": [{"measurement": "Cortex αE2", "setting": "[8]", "result": "8.9 ± 1.7", "unit": "ng/g"}, {"measurement": "Serum αE2", "setting": "[8]", "result": "<0.01", "unit": "ng/mL"}, {"measurement": "Cortex E2", "setting": "[8]; endogenous E2", "result": "0.28 ± 0.09", "unit": "ng/g"}, {"measurement": "Serum E2", "setting": "[8]; endogenous E2", "result": "<0.01", "unit": "ng/mL"}, {"measurement": "Uterus E2", "setting": "[8]; endogenous E2", "result": "0.37 ± 0.10", "unit": "ng/g"}, {"measurement": "uterotrophic effect (wet uterus weight)", "setting": "uterus [9]", "result": "devoid of this detrimental common side effect"}, {"measurement": "immobility time in PST", "setting": "OVX CD1 mice", "result": "dose-dependent reduction in immobility times"}]}
{"compound": "C[C@]12CC[C@@H]3c4ccc(O)cc4CC[C@H]3[C@@H]1CC[C@H]2O", "note": "[αE2, 17α-estradiol, reference compound]", "values": [{"measurement": "immobility time in PST", "setting": "OVX CD1 mice", "result": "dose-dependent reduction in immobility times"}]}
